Assay results taken from US5856506A, “Phosphatase inhibitors and methods of use thereof” (University of Pittsburgh, priority 1997, dated 1999).
Like-named read-outs stand apart in the source and are kept apart here.

Assays:
[1] = test system: PP1; assay: Phosphatase activity by [32P] release from phosphorylase-a or phosphohistone (Honkanen method); format: biochemical; conditions: 100 μM inhibitor; none = 100
Procedure: (§1) It has been found in accordance with the present invention that compounds of formula I are capable of inhibiting serine/threonine protein phosphatases. Inhibition of serine/threonine protein phosphatases is defined herein as inhibition of the activity of one or more of PP1, PP2A or PP3 at a concentration of 100 μM or less of the inhibitor compound. In a preferred embodiment, the activity of the phosphatase is inhibited by at least 10%. In more preferred embodiments, the activity of the phophatase is inhibited by at least 25%, or even more preferably, by at least 50%. Inhibition of PP1, PP2A or PP3 can be assessed by methods known to one of ordinary skill in the art. Suitable assays are described, for example by Honkanen et al. (1994) Toxicon 32:339 and Honkanen et al. (1990) J. Biol. Chem. 265: 19401, the disclosures of which are incorporated herein by reference. Briefly, phosphatase activity is determined by quantifying the [^32 p] released from a ^32 p-labeled substrate such as phosphohistone or phosphorylase-a. Decreased [^32 p] release in the presence of the compounds of the present invention relative to control samples provides a measure of the ability of the compounds of the invention to inhibit PP1, PP2A or PP3.
(§2) Phosphatase activity and the inhibitory activity of the compounds of Table 1 were determined by the method of Honkanen et al. (1994) Toxicon 32:339. Briefly, phosphatase activity against phosphorylase-a or phosphohistone was 25 determined by the quantification of liberated [^32 p]. Assays, 80 μl total volume, containing 50 mM Tris-HCl, pH 7.4, 0.5 mM DTT, 1 mM EDTA (assay buffer) and [^32 p]phosphoprotein (1-2 μM PO4), were conducted as described previously (Honkanen et al., 1991 Mol. Pharmac. 40:577). Dephosphorylation reactions were routinely conducted for 5-10 min. using phosphorylase-a as a substrate and for 10-20 min. using phosphohistone. In all assays the dephosphorylation of substrate was kept to less than 10% of the total phosphorylated substrate available, and the reactions were adjusted to ensure that enzyme activity was linear with respect to enzyme concentration and time. [^32 p]Phosphate liberated by the enzymes was extracted as a phosphomolybdate complex and measured according to the methods of Killilea et al. (1978) Arch. Biochem. Biophys. 191:638. Inhibition of protein phosphatase activity by inhibitors was determined by adding the 100 μM of inhibitors to the enzyme mixture 5-10 min. prior to initiating the reaction with the addition of substrate.

[2] = molecular target: PP2A (Bos taurus, UniProt P67774); assay: as above; format: biochemical; conditions: 100 μM inhibitor; none = 100; read-out: PP2A, percent inhibition relative to control (100%)
PP2A (Bos taurus, UniProt P67774), sequence (P67774 whole entry): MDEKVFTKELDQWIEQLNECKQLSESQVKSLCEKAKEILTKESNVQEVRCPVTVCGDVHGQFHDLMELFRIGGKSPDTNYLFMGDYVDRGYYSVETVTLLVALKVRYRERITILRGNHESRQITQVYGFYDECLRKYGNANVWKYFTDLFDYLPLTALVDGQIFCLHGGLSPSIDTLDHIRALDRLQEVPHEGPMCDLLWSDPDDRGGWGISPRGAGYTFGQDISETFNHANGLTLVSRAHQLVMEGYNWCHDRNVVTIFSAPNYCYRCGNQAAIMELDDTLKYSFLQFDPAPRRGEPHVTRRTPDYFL
Procedure: as §1, §2

[3] = test system: PP3; assay: as above; format: biochemical; conditions: 100 μM inhibitor; none = 100
Procedure: as §1, §2

[4] = test system: Recombinant human CDC25B; assay: CDC25B phosphatase assay, GST fusion protein, fluorescein diphosphate; format: biochemical; conditions: none = 100; 1 hour preincubation; concentration not given (0.3-100 μM tested)
Procedure: The compounds of the present invention are also capable of inhibiting dual specificity phosphatases, for example CDC25A and CDC25B. Phosphatases CDC25A and CDC25B are disclosed in U.S. Pat. No. 5,441,880. Inhibition of dual specificity phosphatases is defined herein as inhibition of the activity of CDC25A and/or CDC25B at a concentration of 100 μM of the inhibitor compound. In a preferred embodiment, the activity of the phosphatase is inhibited by at least 10%. In more preferred embodiments, the activity of the phophatase is inhibited by at least 25%, or even more preferably, by at least 50%. The ability of the compounds of the present invention to inhibit the phosphatases can be determined by measuring the effect of the compounds on the ability of CDC25 or CDC25B to dephosphorylate a substrate. Appropriate methods are known to those of ordinary skill in the art, and include, for example, calorimetric assays. A suitable assay is described in U.S. Pat. No. 5,441,880, the disclosure of which is incorporated herein by reference. […] The assay may be performed as a rapid calorimetric microtitration plate assay.
Compounds 1a-1r were assessed for ability to inhibit CDC25A and CDC25B activity. Recombinant human CDC25A and CDC25B were obtained as a glutahione-S-transferase (GST) fusion protein using human cDNA and standard molecular biological methods. The cDNA constructs are in a plasmid that is expressed in E. coli under the control of isopropyl-beta-D-[…] (IPTG). The bacterial pellet was disrupted by sonication, and centrifuged at 10,000×g. Using glutathione-agarose beads, the fusion protein was purified from postmicrosomal supernant fraction as described by Baratte et al. (1992) Anticancer Res. 12: 873-880. Phosphatase activity was assayed with a spectrofluorimeter under the following conditions: 1 unit (1 U=amount of protein that induces 33 fluoresence units/minute of product) of fusion protein in a final incubation mixture (150 μL) comprised of 25 mM Tris (pH=8.0), 5 mM EDTA, 33 μg/ml BSA, and 20 μM fluorescein diphosphate in 96-well microtiter plates. Plates were preincubated for 1 hour with 0 (control), 0.3, 1, 3, 10, 30, 100 μM compounds at room temperature. After the 1 hour incubation at room temperature, fluorescence of the fluorescein product (Ex. 485 nm; Em. 530 nm) were measured with a Biosystems Cytofluor II (Framingham, Mass.).

[5] = test system: human MDA-MB-231 breast cancer cells; assay: Antiproliferative activity, tetrazolium reduction assay (Lazo method), 72 h; format: cell-based; conditions: MDA-MB-231, 72 h
Description: The ability of the compounds of the present invention to inhibit proliferation can be assessed by methods known to those of ordinary skill in the art. For example, proliferating cells can be contacted with a compound of the invention, and cell numbers determined. A reduction in cell number in treated versus untreated cells provides a measure of the ability of the present compounds to inhibit proliferation. In a preferred embodiment the cells to be treated are cancer cells, for example breast cancer cells such as the CDC25B+ breast cancer cells MDA-MB-231, which are available from the American Type Culture Collection (Accession No. HTB-26). The antiproliferative activity of the present compounds can also be measured by the assay described by Lazo et al. (1995) J. Biol. Chem. 270: 5506, the disclosure of which is incorporated herein by reference. The microtiter-based calorimetric assay is based upon the reduction of 3-[4,5-dimethylthiazol-2-yl]-2,5-diphenyl tetrazolium bromide by living cells, and permits evaluation of the cytostatic or cytotoxic actions of large numbers of compounds quickly in mouse embryonic fibroblasts and human CDC25B+ breast cancer cells. Briefly, exponentially growing CDC25B+ MDA-MB-231 cells are treated continuously with from 0 to 100 μM of a compound of the invention, and cell proliferation is determined calorimetrically after 72 hours by assessing the ability of the cells to reduce 3-[4,5-dimethylthiazol-2-yl]-2,5-diphenyl tetrazolium bromide.
Human MDA-MB-231 breast carcinoma cells were obtained from the American Type Culture Collection at passage 28 and were maintained for no longer than 20 passages. The cells were grown in RPMI-1640 supplemented with 1% penicillin (100 μg/mL) and streptomycin (100 μg/mL), 1% L-glutamate,and 10% fetal bovine serum in a humidified incubator at 37° C. under 5% CO2 in air. Cells were routinely found free of mycoplasma. To remove cells from the monolayer for passage or flow cytometry, cells were washed two times with phosphate buffer and briefly (<3 min) treated with 0.05% trypsin/2 mM EDTA at room temperature. After the addition of at least two volumes of growth medium containing 10W fetal bovine serum, the cells were centrifuged at 1,000×g for 5 min. Compounds were made into stock solutions using DMSO, and stored at -20° C. All compounds and controls were added to obtain a final concentration of 0.1-0.2% (v/v) of the final solution for experiments.
The antiproliferative activity of the compounds was determined by the method of Lazo et al. (1995) J. Biol. Chem. 270:5506. Briefly, cells (6.5×10^3 cells/cm^2) were plated in 96 well flat bottom plates for the cytotoxicity studies and incubated at 37° C. for 48 h. The plating medium was aspirated off 96 well plates and 200 μL of growth medium containing the compound was added per well. Compounds were used at from O to the highest available concentration which ranged from 30 to 100 μM. Plates were incubated for 72 h, and then washed 4× with serum free medium. After washing, 50 μL of 3-[4,5-dimethylthiazol-2-yl]-2,5-diphenyl tetrazolium bromide solution (2 mg/mL) was added to each well, followed by 150 μL of complete growth medium. Plates were then incubated an additional 4 h at 37° C. The solution was aspirated off, 200 μL of DMSO added, and the plates were shaken for 30 min at room temperature. Absorbance at 540 nm was determined with a Titertek Multiskan Plus plate reader. Biologically active compounds were tested at least 3 independent times.

[6] = molecular target: PP2A (Homo sapiens, UniProt P67775); conditions: background, literature, cited from earlier work
PP2A (Homo sapiens, UniProt P67775), sequence (P67775 whole entry): as the sequence (P67774 whole entry) above

[7] = molecular target: T1, catalytic subunit of bovine cardiac muscle PP2A (Bos taurus, UniProt P67774); assay: PP2A activity with fluorescein diphosphate substrate in 96-well plates; format: biochemical; conditions: FIG. 6
T1 construct: purchased Gibco-BRL, Gaithersburg, Md; host or cells: bovine cardiac muscle
T1 sequence (P67774 whole entry): as above
Procedure: FIG. 6 is a graph of inhibition of PP2A activity by compound 1d. The catalytic subunit of PP2A was incubated with vehicle alone (control), calyculin A (10 nM) or compound 1d (100 uM), and the dephosphorylation of the substrate fluorescein diphosphate determined spectro-photometrically. Mean results of two independent experiments are shown; bars indicate the range.
In another suitable assay, the ability of the compounds of the present invention to inhibit the activity of protein phosphatase PP2A is assessed. The activity of the catalytic subunit of bovine cardiac muscle PP2A (Gibco-BRL, Gaithersburg, Md.) is measured in 96-well microtiter plates using the substrate fluorescein diphosphate as follows. […] Fluorescence emission from the product is measured spectrofluorometrically, for example with Perseptive Biosystems Cytofluor II (Framingham, Mass.) (excitation filter, 485 nm; emission filter, 530 nm). The rate of increase in absorbance due to formation of dephosphorylated substrate is proportional to phosphatase activity. Thus, decreased absorbance relative to control samples provides a measure of the ability of the present compounds to inhibit the phosphatase.
The activity of the catalytic subunit of bovine cardiac muscle PP2A (Gibco-BRL, Gaithersburg, Md.) was measured with fluorescein diphosphate (Molecular Probes, Inc., Eugene, Oreg.) as a substrate in 96-well microtiter plates. […]

[8] = test system: PP1; conditions: cited from earlier work
[9] = test system: PP3; conditions: background, literature; cited from earlier work
[10] = somewhat selective but weak inhibitors

CCCCCCN(CCNC(=O)c1nc(-c2ccccc2)oc1C)C(=O)CCC(NC(=O)CCc1ccccc1)C(=O)O (stereo not drawn) [Compound 1h]
PP1 remaining activity, percent of control [1]: 63%
PP2A remaining activity, % of control at 100 µM [2]: 88%
PP3 remaining activity, percent of control [3]: 17%
CDC25B activity remaining, percent of control [4]: 69%
IC50 ([5]; Homo sapiens, MDA-MB-231, 72 h continuous treatment, read-out: concentration causing 50% growth inhibition): 20000 nM
concentration dependence of growth inhibition (in words) [5]: no further cytotoxicity at higher drug concentrations

thyrsiferal-23-acetate
IC50 [6, 10]: 160 to 10000 nM

C[C@@]12C(=O)OC(=O)[C@]1(C)[C@H]1CC[C@@H]2O1 [cantharidine]
IC50 [6, 10]: 160 to 10000 nM

COC[C@@H]([C@H](O)[C@H](O)C(=O)NCC[C@H](C)c1nc(/C=C/C[C@@H]2O[C@]3(C[C@@H](O)[C@@H]2C)O[C@H]([C@H](C[C@H](O)[C@H](C)[C@H](O)[C@H](C)/C=C(C)/C(C)=C/C=C/C(C)=C\C#N)OC)[C@H](OP(=O)(O)O)C3(C)C)co1)N(C)C [calyculin A]
inhibition of PP2A activity (in words) ([7]; 10 nM): inhibited PP2A activity
IC50 ([8]; background, literature): ~0.3 nM
IC50 [6]: ~0.3 nM
IC50 [9]: ~0.3 nM

CCCCCCCCCC(=O)NC(CCC(=O)N(C)CCNC(=O)c1nc(-c2ccccc2)oc1-c1ccccc1)C(=O)O (stereo not drawn) [Compound 1d]
PP1 remaining activity, percent of control [1]: 53%
PP2A remaining activity, % of control at 100 µM [2]: 69%
PP3 remaining activity, percent of control [3]: 33%
inhibition at 100 µM ([7]; 100 μM): 50%
CDC25B activity remaining, percent of control [4]: 91%

CO[C@H]([C@H](O)CC(=O)[C@@H](C)[C@@H](O)CC[C@@H](C)[C@@H]1O[C@]2(CC[C@@H](C)[C@H](CC[C@H](C)C(C)=O)O2)CC[C@@H]1C)[C@H](OC(=O)C[C@@H](O)C1=C(C)C(=O)OC1=O)C(C)C [Tautomycin]
IC50 ([8]; background, literature): ~15 nM
IC50 [6]: ~15 nM
IC50 [9]: ~15 nM

C/C=C1/C(=O)N[C@@H](C(=O)O)[C@H](C)C(=O)N[C@@H](C(C)C)C(=O)N[C@@H](/C=C/C(C)=C/[C@H](C)[C@H](Cc2ccccc2)OC)[C@H](C)C(=O)N[C@@H](C(=O)O)CCC(=O)N1C [Motuporin]
IC50 [8]: < 1 nM
